MIC data for one molecule are collected here from US4840956A, “Novel disubstituted-7-pyrrolidinoquinoline antibacterial agents” (Warner-Lambert Company, priority 1988, dated 1989).

Holding throughout (experiment): MIC by microtitration dilution method
Holding throughout (type): cell-based

Experiment [1] deals with Streptococcus faecalis MGH-2. As to conditions: Enterococcus faecalis, MGH2; Streptococcus faecalis MGH-2, in vitro; read-out: Minimal Inhibitory Concentration MIC. The text has this: (§1) The compounds of the invention display antibacterial activity when tested by the microtitration dilution method as described in Heifetz, et al, Antimicr. Agents & Chemoth., 6, 124 (1974), which is incorporated herein by reference.
(§2) By use of the above referenced method, the following minimum inhibitory concentration values (MICs in μg/ml) were obtained for representative compounds of the invention.

Experiment [2] deals with Streptococcus pyogenes C-203. The note with it: C203; Streptococcus pyogenes C-203, in vitro; read-out: Minimal Inhibitory Concentration MIC.
From the text: as §1, §2

Experiment [3] concerns Staphylococcus aureus H 228. The note with it: H228; Staphylococcus aureus H 228, in vitro; read-out: Minimal Inhibitory Concentration MIC.
From the text: as §1, §2

Experiment [4] relates to Staphylococcus aureus UC-76. The note with it: UC76; Staphylococcus aureus UC-76, in vitro; read-out: Minimal Inhibitory Concentration MIC.
From the text: as §1, §2

The subject of experiment [5] is Streptococcus pneumoniae SV-1. As to conditions: SV1; Streptococcus pneumoniae SV-1, in vitro; read-out: Minimal Inhibitory Concentration MIC.
From the text: as §1, §2

Experiment [6] relates to Escherichia coli Vogel. The note with it: in vitro, read-out: Minimal Inhibitory Concentration MIC. The text has this:
(§3) Agents & Chemoth., 6, 124 (1974), which is incorporated herein by reference.

Experiment [7] relates to Proteus rettgeri M 1771. The note with it: Providencia rettgeri, M1771; Proteus rettgeri M 1771, in vitro; read-out: Minimal Inhibitory Concentration MIC.
From the text: as §3

The subject of experiment [8] is Pseudomonas aeruginosa UI-18. As to conditions: UI18, read-out: Minimal Inhibitory Concentration MIC.
From the text: as §3

Experiment [9] has as its system Enterobacter cloacae MA 2646. As to conditions: MA2646, read-out: Minimal Inhibitory Concentration MIC.
From the text: as §3

Experiment [10] concerns Klebsiella pneumoniae MGH-2. As to conditions: MGH2, read-out: Minimal Inhibitory Concentration MIC.
From the text: as §3

Values after ≈ are worked out from the molar mass of the structure shown.

For the molecule `NCC1(c2ccccc2)CCN(c2c(F)cc3c(=O)c(C(=O)O)cn(C4CC4)c3c2F)C1` (stereo not shown) [Example 5, 7-[[3-(Aminomethyl)-3-phenyl]-1-pyrrolidinyl]-1-cyclopropyl-6,8-difluro-1,4-dihydro-4-oxo-3-quinolinecarboxylic acid], the MIC is 0.05 mg/L (≈ 0.114 µM) in [1]; 0.05 mg/L (≈ 0.114 µM) in experiment [2]; 0.025 mg/L (≈ 0.0569 µM) in [3]; 0.013 mg/L (≈ 0.0296 µM) in experiment [4]; 0.013 mg/L (≈ 0.0296 µM) in experiment [5]; 0.05 mg/L (≈ 0.114 µM) in experiment [6]. In addition, the MIC in experiment [7] stood at 0.2 mg/L (≈ 0.455 µM); in [8], 0.4 mg/L (≈ 0.91 µM); in [9] it was 0.05 mg/L (≈ 0.114 µM); in experiment [10], 0.1 mg/L (≈ 0.228 µM).
